Assay [1] has as its system angiotensinogen (ANGEN) mRNA. Briefly: Quantitative RT-PCR of angiotensinogen mRNA in Fas-activated A549 cells. The class given is cell-based, human. To be noted: A549, CH-11. How it is done:
(§1) RT-PCR. Reverse transcriptase polymerase chain reaction (RT-PCR) assay of angiotensinogen gene products was performed as described in Wang et al., Am. J. Physiol. 276:L885-L889 (1999) in a total reaction volume of 30 μl. Total RNA was isolated by the RNeasy Mini protocol (Qiagen Co., Santa Clarita, Calif.). The reaction was performed for 1 hour at 45 C. followed by 20 cycles of PCR amplification. PCR amplification was performed with 10 ul aliquots of cDNA, equivalent to 1 ug of the starting RNA. The identity of expressed genes was determined by expected size of the PCR product in 1.6% agarose gels.
For RT-PCR from the human A549 cells, the following primers were used: for angiotensinogen, “outer” primer of a two-step nested assay, coding=5′ GCTTTC-[…] 3′ [SEQ. ID NO. ______], and noncoding=5′ […] 3′ [SEQ. ID. NO. ______]; for the “inner” primer of the nested assay, coding=5′ […] 3′ [SEQ. ID NO. ______], and noncoding=5′ […] 3′ [SEQ. ID NO. ______]. These primers yield a final PCR product of 447 bp (8). […]
(§2) To confirm this, total RNA was isolated from human A549 cells or primary rat AEC that were unactivated (CTL) or activated with Fas-ligating CH-11 antibody or purified Fas ligand in the presence or absence of saralasin (SAR). Quantitative RT-PCR was performed with primers specific for human or rat angiotensinogen (ANGEN), β-actin or β-microglobulin (b-MG). […]

Assay [2] relates to primary rat alveolar epithelial cells. Briefly: Apoptosis of rat AEC induced by human lung fibroblast-conditioned media. The class given is cell-based. To be noted: saralasin 50 ug/ml, DEVD-fmk 60 uM, anti-ANGII IgG 1 ug/ml.
Text: Fibroblast Isolation, Culture and Preparation of Conditioned Media. Primary human lung fibroblasts were isolated at the National Institute of Respiratory Diseases, Mexico. […] Of these, “fibrotic” lung fibroblast strains (HIPF-X, where X=patient number) were derived from patients suffering from either of two different types of interstitial lung disease (ILD): Idiopathic Pulmonary Fibrosis (IPF) and Chronic Hypersensitivity Pneumonitis (CHP). In both diseases, patients had clinical, functional and radiologic features which fulfill the diagnostic criteria for an ILD. […] Briefly, all patients had progressive dyspnea, bilateral reticulonodular images on chest roentgenogram, restrictive lung functional impairment with decreased lung volumes and compliance, and hypoxemia at rest that worsened with exercise. […] Patients with IPF had neither antecedents of any occupational or environmental exposure nor other known cause of ILD. […] Biopsies lacked granulomas, vasculitis, microorganisms, and inorganic material by polarized light microscopy.
Control fibroblasts were obtained from individuals having undergone a lobectomy for removal of a primary lung tumor. […] Lung fibroblasts from normal or fibrotic tissue were isolated by trypsin dispersion, and fibroblast strains were established in Dulbecco's modified Eagle's medium (or in Ham's F-12 medium) supplemented with 10% fetal calf serum, 200 U/ml penicillin, and 200 mg/ml streptomycin. […]
Epithelial Cell Culture and Detection of Apoptosis. […] All epithelial cell preparations were greater than 90% pure as determined by acridine orange uptake into lamellar bodies. […] Epithelial cell apoptosis was detected by the assessment, under fluorescence microscopy, of chromatin condensation and nuclear fragmentation within cytokeratin-positive cells after ethanol fixation and staining with propidium iodide. […]
The percentage increase in rat AEC apoptosis was determined by propidium iodide assay of primary alveolar epithelial cells exposed to serum-free conditioned media, see Uhal et al., Am.
Assay [3] has as its system angiotensinogen (ANGEN) mRNA. Briefly: Quantitative RT-PCR of angiotensinogen mRNA in Fas-activated primary rat AEC. The class given is cell-based. The following applies: Fas ligand. How it is done: as §1
For RT-PCR of rat-specific gene products, the following primers were used: for angiotensinogen, coding=5′ […] 3′, and noncoding=5′ […] 3′, which yields a PCR product of 226 bp by single-step RT-PCR (Pierzchalski et al., Exp. Cell Res. 234:57-65 (1997)). For β-microglobulin, the primers used were: coding=5′ […] 3′, and noncoding=5′ […] 3′, which yields a product of 249 bp (Katwa et al., Cardiovasc. Res. 29:57-64 (1995)).
as §2

The target in a further assay is T1, Caspase 3/CPP32/YAMA (Homo sapiens, UniProt P42574).
T1 construct: endogenous in cells; host or cells: A549 human lung epithelial cell line
T1 sequence (P42574 29-277): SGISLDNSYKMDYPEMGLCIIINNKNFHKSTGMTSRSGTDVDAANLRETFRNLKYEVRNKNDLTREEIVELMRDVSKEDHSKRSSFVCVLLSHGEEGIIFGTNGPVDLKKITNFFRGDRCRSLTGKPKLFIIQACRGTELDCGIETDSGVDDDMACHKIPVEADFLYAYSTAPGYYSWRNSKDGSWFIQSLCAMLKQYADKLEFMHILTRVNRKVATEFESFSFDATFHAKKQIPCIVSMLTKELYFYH
The assay is described as follows: Caspase 3/CPP32/YAMA activity in intact A549 cells (Ac-DEVD-AMC). The class given is cell-based. The following applies: 50 ng/ml captopril. How it is done:
(§3) Caspase Assays. The enzymatic activities of Caspase 1/interleukin-1b-converting enzyme (ICE) and Caspase 3/CPP32/YAMA were determined in intact A549 cell cultures pre-incubated under conditions identical to those used for morphologic assays of apoptosis. After a 20 h incubation with antibodies and/or captopril, cells were trypsinized from the culture vessels and resuspended in serum-free culture medium containing anti-FAS antibodies and/or captopril at the same concentrations as during the preincubation. After one hour, fluorogenic peptide substrates specific to each enzyme were added separately to cuvettes containing cell suspension for measurement of total activity in intact cells. […] Production of fluorescent product over time was monitored in a spectrofluorometer at 380 nm excitation and 450 nm emission. […]
(§4) The same concentration of captopril also abrogated FAS-induced stimulation of Caspase 1 (ICE) (p<0.01 compared to control) and Caspase 3/CPP32/YAMA (p<0.01 compared to FASmAb treatment alone) activities. […] Cells were then analyzed in suspension culture for the activity of Caspase 1/ICE with peptide substrate Ac-YVAD-AMC or for activity of Caspase 3/CPP32/YAMA with peptide substrate Ac-DEVD-AMC as described above. […]

A further assay has as its target T2, Caspase 1/ICE (Homo sapiens, UniProt P29466).
T2 construct: endogenous in cells; host or cells: A549 human lung epithelial cell line
T2 sequence (P29466 120-404): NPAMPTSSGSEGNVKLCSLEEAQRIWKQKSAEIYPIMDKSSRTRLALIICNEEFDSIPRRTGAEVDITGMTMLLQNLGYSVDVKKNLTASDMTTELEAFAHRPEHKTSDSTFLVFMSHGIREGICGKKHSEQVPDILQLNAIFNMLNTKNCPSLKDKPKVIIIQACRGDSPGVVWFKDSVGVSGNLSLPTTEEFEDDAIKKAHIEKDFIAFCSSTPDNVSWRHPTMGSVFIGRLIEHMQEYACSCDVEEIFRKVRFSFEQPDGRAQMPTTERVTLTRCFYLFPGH
The assay is described as follows: Caspase 1/ICE activity in intact A549 cells (Ac-YVAD-AMC). The class given is cell-based. The following applies: 50 ng/ml captopril. As to the method: as §3, §4

The record followed here is US20030113330A1, “Methods for treating pulmonary fibrosis” (priority 1999, published 2003).

Structures are written as SMILES. “Also recorded” adds a separate entry of the source.

With `CNCC(=O)N[C@@H](CCCN=C(N)N)C(=O)N[C@H](C(=O)N[C@@H](Cc1ccc(O)cc1)C(=O)N[C@H](C(=O)N[C@@H](Cc1cnc[nH]1)C(=O)N1CCC[C@H]1C(=O)N[C@@H](C)C(=O)O)C(C)C)C(C)C` [saralasin], the “effect on accumulation of ANGEN mRNA during Fas activation” value in assay [1] and in assay [3] was “had no effect” throughout. Further, in assay [2], the “inhibition of apoptosis induced by HIPF-conditioned media” value is reported as “completely abrogated; also recorded: eliminated”.

Take `C[C@H](CS)C(=O)N1CCC[C@H]1C(=O)O` [captopril]: the “effect on FAS-inducible Caspase 3 activity” value at Caspase 3/CPP32/YAMA was “significantly decreased; also recorded: abrogated”. For the same compound, on Caspase 1/ICE, the “effect on FAS-inducible Caspase 1 activity” value is “completely abrogated”.
